Measurements reported in ChEMBL document CHEMBL6092147, “Design of inhibitors of SARS-CoV-2 papain-like protease deriving from GRL0617: Structure-activity relationships” (Bioorg Med Chem, 2024).

Experiments:
[1] = biological target: T1, Replicase polyprotein 1ab (Severe acute respiratory syndrome coronavirus 2, UniProt P0DTD1); test: Inhibition of SARS-CoV-2 papain-like protease
[2] = biological target: T1, Replicase polyprotein 1ab; test: Inhibition of SARS-CoV-2 papain-like protease (PLpro) by FRET analysis
[3] = biological target: T1, Replicase polyprotein 1ab; test: Inhibition of SARS-CoV-2 papain-like protease (PLpro) by enzymatic assay
[4] = biological target: T1, Replicase polyprotein 1ab; test: Inhibition of SARS-CoV-2 Main protease extracted from Escherichia coli BL21 (DE3) cells measured for 60 mins by FRET based analysis
[5] = biological target: T1, Replicase polyprotein 1ab; test: Inhibition of SARS-CoV-2 Main protease using Dabcyl-KLSAVLQSGFRKM-Edans-NH2 as substrate incubated for 30 mins by FRET based enzymatic assay

C#CC(=O)NNC(=O)CCc1ccccc1C(=O)N[C@H](C)c1cccc2ccccc12
IC50 [1]: 90 nM

Cc1ccc(NC2CCN(C)CC2)cc1C(=O)N[C@H](C)c1cc(-c2cccs2)cc(-c2cccs2)c1
IC50 [2]: 180 nM

CCn1ccc(-c2cc(-c3ccn(CC)n3)cc([C@@H](C)NC(=O)c3cc(OCCN(C)C)ccc3C)c2)n1
IC50 [3]: 200 nM

Cc1ccc(NC[C@H]2CCCN2C)cc1C(=O)N[C@H](C)c1cccc2ccccc12
IC50 [4]: 1500 nM

Cc1ccc(NC[C@H]2CCCCN2C)cc1C(=O)N[C@H](C)c1cccc2ccccc12
IC50 [4]: 1500 nM

CCn1ccc(-c2cc(-c3cnn(COC)c3)cc([C@@H](C)NC(=O)c3cc(OCCN(C)C)ccc3C)c2)n1
IC50 [3]: 240 nM

Cc1ccc(N2CCN(CCC(=O)O)CC2)cc1C(=O)NC1(c2cccc3ccccc23)CC1
IC50 [1]: 110 nM

Cc1ccc(OCCN(C)C)cc1C(=O)N[C@H](C)c1cc(-c2cnn(C(F)F)c2)cc(-c2cnn(C(F)F)c2)c1
IC50 [3]: 170 nM

CCn1ccc(-c2cc(-c3cnn(C4COC4)c3)cc([C@@H](C)NC(=O)c3cc(OCCN(C)C)ccc3C)c2)n1
IC50 [3]: 260 nM

Cc1ccc(N2CCNCC2)cc1C(=O)NC1(c2cccc3ccccc23)CC1
IC50 [1]: 30 nM

Cc1ccc(NC2CNC2)cc1C(=O)N[C@H](C)c1cc(-c2cccs2)cc(-c2cccs2)c1
IC50 [2]: 171 nM

Cc1ccc(N2CCN(C)CC2)cc1C(=O)NC1(c2cccc3ccccc23)CC1
IC50 [1]: 20 nM

Cc1ccc(NCC2CNC2)cc1C(=O)N[C@H](C)c1cccc2ccccc12
IC50 [4]: 1000 nM

Cc1ccc(NC[C@@]2(C)CCCN2)cc1C(=O)N[C@H](C)c1cccc2ccccc12
IC50 [4]: 1100 nM

Cc1ccc(N2C[C@H]3C[C@@H](C2)N3)cc1C(=O)NC1(c2cccc3ccccc23)CC1
IC50 [1]: 20 nM

Cc1ccc(OCCN(C)C)cc1C(=O)N[C@H](C)c1cc(-c2ccc3cnn(C)c3c2)cc(-c2cnn(C)c2)c1
IC50 [5]: 130 nM

COc1ncc(-c2cc(-c3cnc(OC)nc3)cc([C@@H](C)NC(=O)c3cc(OCCN(C)C)ccc3C)c2)cn1
IC50 [3]: 1950 nM

Cc1ccc(OCCN)cc1C(=O)N[C@H](C)c1cc(-c2cccs2)cc(-c2cccs2)c1
IC50 [2]: 60 nM

Cc1ccc(NC(=O)NCCN)cc1C(=O)N[C@H](C)c1cccc2ccccc12
IC50 [4]: 1100 nM

Cc1ccc(OCCN(C)C)cc1C(=O)N[C@H](C)c1cc(-c2cnn(CCO)c2)cc(-c2cnn(CCO)c2)c1
IC50 [3]: 160 nM

Cc1ccc(OCCN(C)C)cc1C(=O)N[C@H](C)c1cc(-c2ccc(O)cc2)cc(-c2ccc(O)cc2)c1
IC50 [3]: 160 nM

Cc1ccc(-c2cc(-c3ccc(C)s3)cc([C@@H](C)NC(=O)c3cc(OCCN(C)C)ccc3C)c2)s1
IC50 [3]: 140 nM

Cc1ccc(NC(=O)CN2CCCC2)cc1C(=O)N[C@H](C)c1cccc2ccccc12
IC50 [4]: 1100 nM

CCn1ccc(-c2cc(-c3cnn(CC(F)(F)F)c3)cc([C@@H](C)NC(=O)c3cc(OCCN(C)C)ccc3C)c2)n1
IC50 [3]: 270 nM

Cc1ccc(NC2CCN(C[C@@H]3CCCN3)CC2)cc1C(=O)N[C@H](C)c1cccc2ccccc12
IC50 [4]: 1000 nM

Cc1ccc(OCCN2CCOCC2)cc1C(=O)N[C@H](C)c1cc(-c2cccs2)cc(-c2cccs2)c1
IC50 [2]: 360 nM

COCCn1cc(-c2cc(-c3cnn(CCOC)c3)cc([C@@H](C)NC(=O)c3cc(OCCN(C)C)ccc3C)c2)cn1
IC50 [3]: 180 nM

Cc1ccc(N2CC3CN(C)CC3C2)cc1C(=O)NC1(c2cccc3ccccc23)CC1 (configuration not stated)
IC50 [1]: 130 nM

Cc1ccc(OCCN(C)C)cc1C(=O)N[C@H](C)c1cc(-c2cnn(C)c2)cc(-c2ccc(CN3CCOCC3)o2)c1
IC50 [5]: 120 nM

Cc1ccc(N2CCN(C(=N)N)CC2)cc1C(=O)NC1(c2cccc3ccccc23)CC1
IC50 [1]: 140 nM

Cc1ccc(NC[C@]2(C)CCCN2)cc1C(=O)N[C@H](C)c1cccc2ccccc12
IC50 [4]: 1200 nM

Cc1ccc(N)cc1C(=O)NC1(c2cccc3ccccc23)CC1
IC50 [1]: 180 nM

CC(=O)n1cc(-c2cc(-c3cnn(C)c3)cc([C@@H](C)NC(=O)c3cc(OCCN(C)C)ccc3C)c2)cn1
IC50 [5]: 110 nM

CCn1ccc(-c2cc(-c3ccn(CC(F)F)n3)cc([C@@H](C)NC(=O)c3cc(OCCN(C)C)ccc3C)c2)n1
IC50 [3]: 220 nM

CCn1ccc(-c2cc(-c3cnn(C(F)F)c3)cc([C@@H](C)NC(=O)c3cc(OCCN(C)C)ccc3C)c2)n1
IC50 [3]: 320 nM

Cc1ccc(OCCN(C)C)cc1C(=O)N[C@H](C)c1cc(-c2c(C)noc2C)cc(-c2c(C)noc2C)c1
IC50 [3]: 400 nM

Cc1ccc(NC[C@@H](N)CNC[C@H]2CCCN2)cc1C(=O)N[C@H](C)c1cccc2ccccc12
IC50 [4]: 1100 nM

Cc1ccc(NCC2CNC2)cc1C(=O)N[C@H](C)c1cc(-c2cccs2)cc(-c2cccs2)c1
IC50 [2]: 340 nM

Cc1ccc(OCCN(C)C)cc1C(=O)N[C@H](C)c1cc(-c2ccoc2)cc(-c2ccoc2)c1
IC50 [3]: 80 nM

CCn1ccc(-c2cc(-c3cnn(C(C)C)c3)cc([C@@H](C)NC(=O)c3cc(OCCN(C)C)ccc3C)c2)n1
IC50 [3]: 200 nM

Cc1ccc(NC[C@@H]2CCCCN2C)cc1C(=O)N[C@H](C)c1cccc2ccccc12
IC50 [4]: 1400 nM

Cc1ccc(NC(=O)[C@H]2CCCN2)cc1C(=O)N[C@H](C)c1cccc2ccccc12
IC50 [4]: 1400 nM

CC(=O)Nc1cccc(Nc2ccc(C)c(C(=O)NC3(c4cccc5ccccc45)CC3)c2)c1
IC50 [1]: 500 nM

Cc1ccc(OCCN(C)C)cc1C(=O)N[C@H](C)c1cc(-c2cncs2)cc(-c2cncs2)c1
IC50 [3]: 100 nM

Cc1ccc(OCCN(C)C)cc1C(=O)N[C@H](C)c1cc(-c2ccnn2C)cc(-c2ccnn2C)c1
IC50 [3]: 460 nM

CCn1ccc(-c2cc(-c3cnn(CC(F)F)c3)cc([C@@H](C)NC(=O)c3cc(OCCN(C)C)ccc3C)c2)n1
IC50 [3]: 230 nM

CCn1nccc1-c1cc(-c2ccnn2CC)cc([C@@H](C)NC(=O)c2cc(OCCN(C)C)ccc2C)c1
IC50 [3]: 440 nM

Cc1ccc(N2CCNC(C)C2)cc1C(=O)NC1(c2cccc3ccccc23)CC1 (configuration not stated)
IC50 [1]: 70 nM

Cc1ccc(OCCN(C)C)cc1C(=O)N[C@H](C)c1cc(-c2ccsc2)cc(-c2ccsc2)c1
IC50 [3]: 100 nM

Cc1ccc(N2CC3CNCC3C2)cc1C(=O)NC1(c2cccc3ccccc23)CC1 (configuration not stated)
IC50 [1]: 30 nM

Cc1ccc(OCCN(C)C)cc1C(=O)N[C@H](C)c1cc(-c2ccco2)cc(-c2ccco2)c1
IC50 [3]: 200 nM

Cc1ccc(N2CCN(CC(=O)O)CC2)cc1C(=O)NC1(c2cccc3ccccc23)CC1
IC50 [1]: 40 nM

CCn1ccc(-c2cc(-c3ccn(C(F)F)n3)cc([C@@H](C)NC(=O)c3cc(OCCN(C)C)ccc3C)c2)n1
IC50 [3]: 400 nM

CCn1ccc(-c2cc(-c3ccn(C)n3)cc([C@@H](C)NC(=O)c3cc(OCCN(C)C)ccc3C)c2)n1
IC50 [3]: 330 nM

Cc1ccc(OCCN(C)C)cc1C(=O)N[C@H](C)c1cc(-c2ccccc2)cc(-c2ccccc2)c1
IC50 [3]: 103 nM

Cc1ccc(NC(=O)CNCC2CC2)cc1C(=O)N[C@H](C)c1cccc2ccccc12
IC50 [4]: 1300 nM

Cc1ccc(N)cc1C(=O)N[C@H](C)c1cc(-c2cccs2)cc(-c2cccs2)c1
IC50 [2]: 170 nM

Cc1ccc(NCC2(C)CCN2)cc1C(=O)N[C@H](C)c1cccc2ccccc12 (mixture of isomers)
IC50 [4]: 800 nM

Cc1ccc(NC(=O)C2CNCCN2)cc1C(=O)N[C@H](C)c1cccc2ccccc12 (mixture of isomers)
IC50 [4]: 1500 nM

Cc1ccc(NCC2CN(C)CCN2)cc1C(=O)N[C@H](C)c1cccc2ccccc12 (mixture of isomers)
IC50 [4]: 1500 nM

Cc1ccc(NC(=O)C2CN(C(C)C)CCN2)cc1C(=O)N[C@H](C)c1cccc2ccccc12 (mixture of isomers)
IC50 [4]: 1400 nM

Cc1ccccc1C(=O)NC(C)c1cccc2ccccc12 (racemic)
IC50 [1]: 23500 nM
